According to patent US9040530B2, “1,2,4-triazine-6-carboxamide kinase inhibitors” (Portola Pharmaceuticals, Inc., priority 2012, dated 2015):

The molecules below were run against T1, full length active recombinant SYK enzyme (Homo sapiens, UniProt P43405) (assay: Inhibition of Syk tyrosine phosphorylation activity (LANCE TR-FRET kinase assay)). Details: 1 nM active SYK enzyme, 550 nM SYK-substrate, 100 μM ATP, 1 hour at room temperature.
T1 construct: full length active recombinant SYK enzyme (Millipore, Calif.); purchased Millipore
Assay type: biochemical

IC50 [nM] | SMILES
10 to 100 | CC[C@@H](Nc1nnc(C(N)=O)c(Nc2ccc3scnc3c2)n1)C(N)=O [Example 246, (R)-3-((1-amino-1-oxobutan-2-yl)amino)-5-(benzo[d]thiazol-5-ylamino)-1,2,4-triazine-6-carboxamide]
10 to 100 | NC(=O)c1nnc(N[C@@H]2CCOC[C@@H]2N)nc1Nc1cccc(C(F)(F)F)c1 [Example 251, 3-(((3R,4R)-3-aminotetrahydro-2H-pyran-4-yl)amino)-5-((3-(trifluoromethyl)phenyl)amino)-1,2,4-triazine-6-carboxamide]
1 to 10 | NC(=O)c1nnc(N[C@@H]2CCOC[C@@H]2N)nc1Nc1cccc(-c2ncco2)c1 [Example 252, 3-(((3R,4R)-3-aminotetrahydro-2H-pyran-4-yl)amino)-5-((3-(oxazol-2-yl)phenyl)amino)-1,2,4-triazine-6-carboxamide]
10 to 100 | NC(=O)c1nnc(N[C@@H]2CCOC[C@@H]2N)nc1Nc1ccc(-c2ncco2)cc1 [Example 253, 3-(((3R,4R)-3-aminotetrahydro-2H-pyran-4-yl)amino)-5-((4-(oxazol-2-yl)phenyl)amino)-1,2,4-triazine-6-carboxamide]
10 to 100 | NC(=O)c1nnc(N[C@H](CC2CC2)C(N)=O)nc1Nc1ccc(Cl)c(Cl)c1 [Example 254, (R)-3-((1-amino-3-cyclopropyl-1-oxopropan-2-yl)amino)-5-((3,4-dichlorophenyl)amino)-1,2,4-triazine-6-carboxamide]
10 to 100 | NC(=O)c1nnc(N[C@@H]2CCCC[C@@H]2N)nc1Nc1cnc2cccnc2c1 [Example 258, 5-((1,5-naphthyridin-3-yl)amino)-3-(((1R,2S)-2-aminocyclohexyl)amino)-1,2,4-triazine-6-carboxamide]

More lines, now with the values behind:

SMILES | IC50 [nM]
NC(=O)c1nnc(N[C@@H]2CCOC[C@@H]2N)nc1Nc1ccc(Cl)cc1 [Example 243, 3-(((3R,4R)-3-aminotetrahydro-2H-pyran-4-yl)amino)-5-((4-chlorophenyl)amino)-1,2,4-triazine-6-carboxamide] | 10 to 100
NC(=O)c1nnc(N[C@@H]2CCOC[C@@H]2N)nc1Nc1ccc(Cl)c(Cl)c1 [Example 244, 3-(((3R,4R)-3-aminotetrahydro-2H-pyran-4-yl)amino)-5-((3,4-dichlorophenyl)amino)-1,2,4-triazine-6-carboxamide] | 10 to 100
NC(=O)c1nnc(N[C@@H]2CCCC(F)(F)[C@@H]2N)nc1Nc1ccc2scnc2c1 [Example 245, 3-(((1R,2R)-2-amino-3,3-difluorocyclohexyl)amino)-5-(benzo[d]thiazol-5-ylamino)-1,2,4-triazine-6-carboxamide] | 10 to 100
NC(=O)c1nnc(N[C@@H]2CCOC[C@@H]2N)nc1Nc1ccc2scnc2c1 [Example 247, 3-(((3R,4R)-3-aminotetrahydro-2H-pyran-4-yl)amino)-5-(benzo[d]thiazol-5-ylamino)-1,2,4-triazine-6-carboxamide] | 10 to 100
CC(C)C[C@@H](Nc1nnc(C(N)=O)c(Nc2ccc(Cl)cc2)n1)C(N)=O [Example 248, (R)-3-((1-amino-4-methyl-1-oxopentan-2-yl)amino)-5-((4-chlorophenyl)amino)-1,2,4-triazine-6-carboxamide] | 10 to 100
NC(=O)c1nnc(N[C@H](CC2CC2)C(N)=O)nc1Nc1ccc(Cl)cc1 [Example 249, (R)-3-((1-amino-3-cyclopropyl-1-oxopropan-2-yl)amino)-5-((4-chlorophenyl)amino)-1,2,4-triazine-6-carboxamide] | 10 to 100
NC(=O)c1nnc(N[C@@H]2CCCC(F)(F)[C@@H]2N)nc1Nc1ccc(Cl)cc1 [Example 250, 3-(((1R,2R)-2-amino-3,3-difluorocyclohexyl)amino)-5-((4-chlorophenyl)amino)-1,2,4-triazine-6-carboxamide] | 100 to 1000
CC(C)C[C@@H](Nc1nnc(C(N)=O)c(Nc2ccc(Cl)c(Cl)c2)n1)C(N)=O [Example 255, (R)-3-((1-amino-4-methyl-1-oxopentan-2-yl)amino)-5-((3,4-dichlorophenyl)amino)-1,2,4-triazine-6-carboxamide] | 10 to 100
COc1cc(Nc2nc(N[C@@H]3CCOC[C@@H]3N)nnc2C(N)=O)ccc1Cl [Example 256, 3-(((3R,4R)-3-aminotetrahydro-2H-pyran-4-yl)amino)-5-((4-chloro-3-methoxyphenyl)amino)-1,2,4-triazine-6-carboxamide] | 10 to 100
NC(=O)c1nnc(N[C@@H]2CCOC[C@@H]2N)nc1Nc1cnc2cccnc2c1 [Example 257, 5-((1,5-naphthyridin-3-yl)amino)-3-(((3R,4R)-3-aminotetrahydro-2H-pyran-4-yl)amino)-1,2,4-triazine-6-carboxamide] | 100 to 1000
